Values of other authors as cited in patent publication US7635572B2, “Methods for conducting assays for enzyme activity on protein microarrays” (Life Technologies Corporation, priority 2004, dated 2009).

System: 39 kinases (Table 4)
Conditions: known general specificities of the inhibitors, Table 3; cited from earlier work

## Oc1ccc(-c2nc(-c3ccncc3)c(-c3ccc(F)cc3)[nH]2)cc1 [SB 202190]
  General Specificity (known): serine/threonine
